Results on 2 compounds are retold here after article PMC12323621, “Exploring the antimicrobial activity of pantothenamides against uropathogenic Escherichia coli” (Microbiology Spectrum, 2025).

Series [1] is described as follows: Stability in mouse plasma. The format is in vitro ADME. As to conditions: for stability in mouse plasma: n = 3. The protocol:
(§1) Stability studies were conducted in mouse liver microsomes, mouse liver tissue homogenate, and CD1 mouse plasma as previously described with minor modifications ([54][–][56]). Briefly, for Phase I mouse liver microsome stability, reactions were carried out with 200 mM potassium phosphate buffer, pH 7.4, with or without an NADPH-regenerating system (1.3 mM NADPH, 3.3 mM glucose 6-phosphate, 3.3 mM MgCl2, 0.4 U/mL glucose-6-phosphate dehydrogenase, and 50 µM sodium citrate). Reactions, in triplicate, were initiated by the addition of liver microsomes to the incubation mixture (compound final concentration was 1 µM; 0.2 mg/mL microsomes) and incubated at 37°C for the desired incubation time. For liver stability, the tissue homogenate was prepared by washing tissues with diluted 10-fold 0.1 M potassium phosphate buffer and homogenized using a probe sonicator over ice. To evaluate the stability of the drugs over time, each of the crude homogenates was aliquoted to 1 mL and then spiked with a final assay concentration of 10 µM of each drug, followed by incubation in an orbital shaker at 37°C for 1 h (in triplicate). For plasma stability, 1 mL of plasma was spiked with 10 µM of each drug, followed by incubation in an orbital shaker at 37°C for 1 h (in triplicate). Samples from each metabolism study were quenched with 3× volume of acetonitrile containing internal standard (losartan: 0.5 µM) at the desired incubation times. […] Samples were vortex-mixed for 30 s and centrifuged at 10,000 × g for 10 min at 4°C. Compound disappearance over time was monitored using a Dionex ultra-high-performance liquid chromatography system consisting of an analytical pump and an autosampler coupled with Q Exactive Focus orbitrap mass spectrometer (Thermo Fisher Scientific Inc., Waltham MA). […] The mobile phase used was composed of 0.1% formic acid in water and 0.1% formic acid in acetonitrile with gradient elution. The total run time for each analyte was 5 min.
(§2) The mass spectrometer was operated with a HESI ion source in positive ionization mode where compounds were identified in the full scan mode (from m/z 75.00–1125.00) and controlled by the Xcalibur software 4.0.27.13 (Thermo Scientific). Data were acquired using Xcalibur software. Drugs were identified in the full-scan mode (from m/z 75.00 to 1125.00) by comparing t = 0 samples with t = 30 or 60 min samples, and structures were proposed based on the accurate mass information. The percentage of compound remaining for pantothenamides 1, 6, and 7 was determined from the analyte/internal standard (IS) area ratios obtained at t = 30 or 60 min relative to the mean ratios obtained at t = 0 min and calculated using equation 1:
(§3) % Remaining=(Peak area of Analyte/Preak area of ISat t=30 or 60 min/MeanPeak area of Analyte/Peak area of ISat t=0 min)×100

A further series concerns serum pantetheinases. As to conditions: cited from earlier work.
In series [2] the test system is UPEC strain CFT073. Description: Checkerboard analysis of BAP with pantothenamide in pooled human urine. The format is cell-based, Escherichia coli. As to conditions: combination with BAP, UPEC in urine batch B. On the procedure:
As previously described ([7]), an inoculum of 10^5 CFU/mL CFT073 was prepared in pooled human urine Batch B (described above). Cells (100 µL) were added 1:1 to a 96-well plate containing varied combinations of BAP and 1 or N5-Pan analog at 2× the final concentration (100 µL). The OD600 was recorded at 37°C for 16 h with intermittent shaking. Fractional growth was calculated relative to the no drug control at 6 h. Experiments were performed in biological triplicate.
Fractional inhibitory concentration indices (FICI) were determined as previously described ([7], [8]) and calculated using equation 2:
FICI=FICA+FICB=([A]/MICA)+([B]/MICB)
MICA and MICB are the lowest [A] or [B], respectively, required to suppress 90% of the bacterial growth. FICA was calculated as [A] in the presence of B for a combination resulting in <10% growth, divided by MICA. FICB was calculated as [B] in the presence of A for a combination resulting in <10% growth, divided by MICB. Isobolograms were prepared from the checkerboard analysis by plotting FIC for BAP and 1 or 6 over the range of BAP concentrations tested in combination with 1 or 6. Points falling below the line of additivity indicate potentiation of activity. See Fig. S6 for the visual representation of the method of assembling isobolograms.

The nature of series [3]: Stability in mouse liver homogenate. The format is in vitro ADME. To be noted: for remaining at 1 h, 10 µM: mouse, liver tissue homogenate (10% wt/vol), 10% wt/vol homogenate, 10 µM compound, 37°C; for stability in mouse liver homogenate: n = 3. On the procedure: as §1, §2, §3
A further series concerns mammalian cells. As to conditions: cited from earlier work.
The subject of series [4] is UPEC strain CFT073. The arrangement: method as in PMID 37107054. As to conditions: cited from earlier work.
Series [5] has as its system UPEC strain CFT073. The arrangement: method as in PMID 37107054. As to conditions: 1 combined with BAP; cited from earlier work.

Values after ≈ are worked out from the molar mass of the structure shown.

For `CCCCCNC(=O)CNC(=O)[C@H](O)C(C)(C)CO` [compound 6, N5-α-pantothenamide], the “% remaining in mouse plasma” value in series [1] (1 h, 10 µM compound, 37°C) is “no degradation”. Moreover, the “stability in mouse plasma” value in series [1] is reported as “good stability”. Moreover, the “stability in the presence of serum pantetheinases” value in the series on serum pantetheinases is reported as “stable”. Further, the “effect of BAP on activity (isobologram analysis)” value in the series with UPEC strain CFT073 [2] was “potentiates the activity”. Moreover, the “Fractional inhibitory concentration index (FICI)” value in the series with UPEC strain CFT073 [2] (range across experiments) is reported as 0.5–1.25. Further, in series [3], the share remaining at 1 h, 10 µM was determined as 96% and the “stability in mouse liver homogenate” value was “good stability”. Also, in the series on mammalian cells, the “toxicity to mammalian cells” value is “non-toxic”.
Turning to `CCCCCNC(=O)CCNC(=O)[C@H](O)C(C)(C)CO` [compound 1, N-pentylpantothenamide, reference compound], the amount remaining at 1 h, 10 µM in series [1] (CD1, mouse, plasma, 1 h, 10 µM compound, 37°C) is less than 1%. Moreover, in series [1], the “stability in mouse plasma” value is on record as “unstable”. In addition, the “fold drop in potency in urine versus MOPS-glycerol” value in the series with UPEC strain CFT073 [4] (UPEC CFT073) is no less than 30 fold. In the series with UPEC strain CFT073 [4] (UPEC, commercial pooled human urine), the “MIC in commercial pooled human urine” value was 156 µM (≈ 45 µg/mL). The “effect of BAP on activity (isobologram analysis)” value with UPEC strain CFT073 [2] was “potentiates the activity”. In series [3], the share remaining at 1 h, 10 µM amounted to 17% and the “stability in mouse liver homogenate” value is “unstable”. Moreover, the “interaction with BAP against UPEC in urine” value with UPEC strain CFT073 [5] is on record as “synergy”.
